Data reported in patent publication US10723699B2 (Hyundai Pharm Co., Ltd., priority 2015, dated 2020).

How the values were obtained:
NCI-H716 cells = test: Promotion of glucagon-like peptide-1 (GLP-1) secretion (ELISA); type: cell-based, human; conditions: 1, 10, 30 μM
Method: To evaluate an effect of the cyclohexene derivative according to the present invention on promotion of glucagon-like peptide-1 (GLP-1) secretion, experiments were carried out, as follows.
NCI-H716 cells that were human enterocytes were plated on 12 wells at 1×10^6 cells per well. After 48 hours, the cells were starved in serum-free media for 2 hours, and treated with a varying concentration of siptagliptin that was a dipeptidyl peptidase-IV (DPP-IV) inhibitor, and the compounds of Comparative Example 1 (1, 10, 30 μM), Comparative Example 5 (10 μM), Example 48 (1, 10, 30 μM), and Example 291 (1, 10, 30 μM). After an hour, supernatants are recovered to determine an amount of the secreted GLP-1 peptide. The GLP-1 measurement was performed using an enzyme-linked immunosorbant assay (ELISA; Millipore, EGLP-35K), and the amount of the secreted GLP-1 peptide was indicated by the unit “pM”.

CYP1A2 = biological target: T1, CYP1A2 (Homo sapiens, UniProt P05177); test: CYP inhibition assay (BD GENTEST kit); type: in vitro ADME; conditions: 10 μM
T1 construct: purchased BD GENTEST 459100
T1 sequence (P05177 1-516): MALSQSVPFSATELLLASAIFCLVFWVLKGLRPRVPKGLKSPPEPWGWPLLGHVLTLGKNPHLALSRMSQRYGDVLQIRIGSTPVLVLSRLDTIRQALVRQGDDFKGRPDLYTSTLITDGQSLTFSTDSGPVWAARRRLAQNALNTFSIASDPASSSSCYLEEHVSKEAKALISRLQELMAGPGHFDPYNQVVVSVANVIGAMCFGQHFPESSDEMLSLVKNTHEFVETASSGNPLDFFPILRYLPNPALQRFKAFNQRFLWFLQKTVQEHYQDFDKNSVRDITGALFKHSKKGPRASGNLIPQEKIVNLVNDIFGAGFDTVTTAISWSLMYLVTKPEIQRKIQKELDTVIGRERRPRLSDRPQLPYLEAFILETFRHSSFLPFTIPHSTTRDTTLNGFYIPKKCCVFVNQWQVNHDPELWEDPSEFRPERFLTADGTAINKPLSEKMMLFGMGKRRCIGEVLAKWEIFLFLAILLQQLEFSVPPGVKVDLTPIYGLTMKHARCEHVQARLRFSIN
Excerpt: (§1) CYP enzymes play a major role in the metabolism of drugs. Depending on the inhibition activity of the CYP enzymes, the dose of the drugs and toxicity due to the co-administration of other drugs can be predicted. Therefore, we have measured the inhibitory activity for CYP3A4, CYP2C9, CYP1A2, CYP2D6 and CYP2C19 enzymes present in the body using the compounds of the present invention. Invitrogen P2862 kit was used for CYP2D6 inhibition assay, and BD GENTEST (459100, 459300, 459400, 459500) kits were used for CYP1A2, CYP2C9, CYP2C19 and CYP3A4 inhibition assay. In case of Invitrogen kit, the test materials were diluted in distilled water into 2.5× of the final test concentration.
(§2) In case of BD GENTEST kit, the test materials were diluted in acetonitrile into 50× of the final test concentration. NADPH-cofactor mixture containing cofactor, G6PDH and control protein was prepared in distilled water as per manufacturer's instruction. 4 μl of 50× test materials and 96 μl of NADPH-cofactor mixture were mixed in U-bottom 96-well plate, and the resulting mixture were pre-incubated at 37° C. for 10 minutes. Predetermined concentrations of enzyme/substrate mixture were prepared in distilled water using buffer (0.5M potassium phosphate, pH 7.4) and each of CYP450 enzyme/substrate mixture provided in the kit for the types of CYP450. To the pre-incubated plate, 100 μl of enzyme/substrate mixture was added, and then incubated at 37° C. for 15 minutes (CYP1A2), 30 minutes (CYP3A4 and CYP2C19) or 1.5 hours (CYP2C9). After completion of the reaction, the reactants were transferred to the white plates, and fluorescent values were measured using a micro-plate reader (Excitation and absorption wavelengths of CYP1A2 and CYP2C19 were 410 nm and 460 nm, respectively; and excitation and absorption wavelengths of CYP2C9 and CYP3A4 were 409 nm and 530 nm, respectively).
(§3) The measured values were converted into the inhibition percent of the test materials as compared to the value of the untreated control, and the results were summarized in Table 5.

CYP2C19 = biological target: T2, CYP2C19 (Homo sapiens, UniProt P33261); test: CYP inhibition assay (BD GENTEST kit); type: in vitro ADME; conditions: 10 μM
T2 construct: purchased BD GENTEST 459400
Excerpt: as §1, §2, §3

CYP2C9 = biological target: T3, CYP2C9 (Homo sapiens, UniProt P11712); test: CYP inhibition assay (BD GENTEST kit); type: in vitro ADME; conditions: 10 μM
T3 construct: purchased BD GENTEST 459300
Excerpt: as §1, §2, §3

CYP3A4 = biological target: T4, CYP3A4 (Homo sapiens, UniProt P08684); test: CYP inhibition assay (BD GENTEST kit); type: in vitro ADME; conditions: 10 μM
T4 construct: purchased BD GENTEST 459500
Excerpt: as §1, §2, §3

T3 sequence (P11712 whole entry): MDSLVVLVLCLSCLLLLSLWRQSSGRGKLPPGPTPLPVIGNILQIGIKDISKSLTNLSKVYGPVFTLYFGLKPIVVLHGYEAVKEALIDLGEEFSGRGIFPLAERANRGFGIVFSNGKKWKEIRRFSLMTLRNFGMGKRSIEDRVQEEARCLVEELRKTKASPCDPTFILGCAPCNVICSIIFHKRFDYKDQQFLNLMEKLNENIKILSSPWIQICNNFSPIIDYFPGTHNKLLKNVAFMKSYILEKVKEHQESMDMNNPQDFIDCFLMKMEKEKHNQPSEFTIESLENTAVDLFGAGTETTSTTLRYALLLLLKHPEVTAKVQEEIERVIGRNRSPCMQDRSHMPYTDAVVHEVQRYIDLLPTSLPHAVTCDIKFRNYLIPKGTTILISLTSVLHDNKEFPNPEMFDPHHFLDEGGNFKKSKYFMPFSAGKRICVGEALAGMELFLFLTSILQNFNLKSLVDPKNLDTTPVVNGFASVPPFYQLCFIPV
T2 sequence (P33261 whole entry): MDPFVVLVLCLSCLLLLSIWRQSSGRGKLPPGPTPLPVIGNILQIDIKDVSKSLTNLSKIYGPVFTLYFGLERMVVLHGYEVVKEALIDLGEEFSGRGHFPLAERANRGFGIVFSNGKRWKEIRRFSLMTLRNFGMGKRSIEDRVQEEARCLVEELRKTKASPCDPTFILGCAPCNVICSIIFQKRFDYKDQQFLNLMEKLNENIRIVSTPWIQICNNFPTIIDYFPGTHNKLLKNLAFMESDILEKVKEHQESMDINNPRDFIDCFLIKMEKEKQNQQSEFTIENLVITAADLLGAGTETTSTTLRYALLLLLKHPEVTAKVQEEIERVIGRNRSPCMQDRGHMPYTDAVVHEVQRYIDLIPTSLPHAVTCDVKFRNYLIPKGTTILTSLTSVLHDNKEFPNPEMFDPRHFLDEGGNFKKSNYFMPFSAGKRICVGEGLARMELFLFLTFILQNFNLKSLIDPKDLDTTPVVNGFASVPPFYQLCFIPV
T4 sequence (P08684 whole entry): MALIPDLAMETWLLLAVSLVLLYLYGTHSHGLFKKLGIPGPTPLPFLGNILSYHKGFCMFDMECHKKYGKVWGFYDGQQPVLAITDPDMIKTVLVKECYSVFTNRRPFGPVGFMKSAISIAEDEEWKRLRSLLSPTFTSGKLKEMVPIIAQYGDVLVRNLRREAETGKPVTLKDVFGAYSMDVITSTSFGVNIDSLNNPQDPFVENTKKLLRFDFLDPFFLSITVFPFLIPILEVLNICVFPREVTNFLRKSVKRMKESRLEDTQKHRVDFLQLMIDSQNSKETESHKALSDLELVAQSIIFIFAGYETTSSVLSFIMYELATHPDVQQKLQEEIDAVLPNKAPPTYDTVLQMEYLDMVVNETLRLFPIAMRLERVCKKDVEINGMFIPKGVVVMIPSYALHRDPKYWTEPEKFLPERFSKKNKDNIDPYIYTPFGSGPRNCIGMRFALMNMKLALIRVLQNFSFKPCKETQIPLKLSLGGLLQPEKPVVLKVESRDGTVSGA

CCc1cnc(N2CCC(COc3ccc(C4=CCC(C(=O)N5CCC[C@@H]5CO)CC4)cc3)CC2)nc1 (single isomer, unassigned; (-)) [Example 291]
GLP-1 secretion relative to the untreated group (NCI-H716 cells): approximately 1.8 times | CYP inhibition (% at 10 μM) 1A2 (CYP1A2): 0% | CYP inhibition (% at 10 μM) 2C19 (CYP2C19): 54.06% | CYP inhibition (% at 10 μM) 2C9 (CYP2C9): 47.32% | CYP inhibition (% at 10 μM) 3A4 (CYP3A4): 36.36%
